According to ChEMBL document CHEMBL5727912, “Benzenesulfonamide compounds and their use as therapeutic agents” (2020):

Experiments:
[1] = In Vitro Assay: In general, Trex HEK293 cells were stably transfected with an inducible expression vector containing the full-length cDNA coding for the desired human sodium channel α-subunit and with an expression vector containing full length cDNA coding for the β1-subunit. Sodium channel expressing cell lines were induced with tetracycline (1 μg/mL) and plated on 384-well PDL-coated plates at …
[2] = as above; remark: listed apart in the source

Row | SMILES | IC50 [1] [µM] | IC50 [2] [µM]
1 | C[C@H](c1c(F)ccc(F)c1CNc1cc(F)c(S(=O)(=O)Nc2cscn2)c(F)c1)N1C2CCC1CC2 (single isomer, unassigned) | > 30 | > 30
2 | C[C@@H](c1c(F)ccc(F)c1CNc1cc(F)c(S(=O)(=O)Nc2cscn2)c(F)c1)N1C2CCC1CC2 (single isomer, unassigned) | > 30 | > 30
